≈ marks a conversion by molar mass, not a printed value. Like-named read-outs stand apart in the source and are kept apart here.
What was measured:
[1] = biological target: T1, FAS (Homo sapiens, UniProt P49327); test: FAS (IC50) marked (SB); type: biochemical; details: value marked (SB), not defined
T1 construct: Human FAS was purified from cultured ZR-75-1 human breast cancer cells; endogenous in cells

[2] = Weight loss screen; type: in vivo, Balb/C mice; details: 60 mg/kg intraperitoneally
Description: Balb/C mice (Jackson Labs) are utilized for the initial weight loss screening. Animals are housed in temperature and 12 hour day/night cycle rooms and fed mouse chow and water ad lib. Three mice are utilized for each compound tested with vehicle controls in triplicate per experiment. For the experiments, mice are housed separately for each compound tested three mice to a cage. Compounds are diluted in DMSO at 10 mg/ml and mice are injected intraperitoneally with 60 mg/kg in approximately 100 μl of DMSO or with vehicle alone. Mice are observed and weighed daily; average weights and standard errors are computed with Excel (Microsoft). The experiment continues until treated animals reach their pretreatment weights. Select compounds are tested in animals housed in metabolic cages. Dosing of animals are identical to the screening experiments with three animals to a single metabolic cage. Animal weights, water and food consumption, and urine and feces production are measured daily.

[3] = test system: Staphylococcus aureus (ATCC # 29213); test: Broth microdilution MIC, S. aureus; type: cell-based; details: for MIC: Staphylococcus aureus, ATCC29213
Description: (§1) A broth microdilution assay is used to assess the antimicrobial activity of the compounds. […] Microorganisms tested include Staphylococcus aureus (ATCC # 29213), Enterococcus faecalis (ATCC # 29212), Pseudomonas aeruginosa (ATCC # 27853), and Escherichia coli (ATCC # 25922). The assay is performed in two growth media, Mueller Hinton Broth and Trypticase Soy Broth. A blood (Tsoy/5% sheep blood) agar plate is inoculated from frozen stocks maintained in T soy broth containing 10% glycerol and incubated overnight at 37° C. Colonies are suspended in sterile broth so that the turbidity matches the turbidity of a 0.5 McFarland standard. The inoculum is diluted 1:10 in sterile broth (Mueller Hinton or Trypticase soy) and 195 ul is dispensed per well of a 96-well plate. The compounds to be tested, dissolved in DMSO, are added to the wells in 5 ul volume at the following concentrations: 25, 12.5, 6.25, 3.125, 1.56 and 0.78 ug/ml in duplicate. Additional concentrations are tested if required. 5 ul of DMSO added to duplicate wells are the vehicle control. Serial dilutions of positive control compounds, vancomycin (E. faecalis and S. aureus) and tobramycin (E. coli and P. aeruginosa), are included in each run. After 24 hours of incubation at 37° C., plates are read at OD600 on a Molecular Devices SpectraMax Plus Spectrophotometer. Average OD600 values are computed using SOFTmax Pro Software (Molecular Devices) and MIC values are determined by linear regression analysis using Prism version 3.02 (Graph Pad Software, San Diego). The MIC is defined as the concentration of compound required to produce an OD600 reading equivalent to 10% of the vehicle control reading.

[4] = test system: Pseudomonas aeruginosa (ATCC # 27853); test: Broth microdilution MIC, P. aeruginosa; type: cell-based; details: for PSAE/MH (MIC): Mueller Hinton Broth
Description: as §1

[5] = test system: Enterococcus faecalis (ATCC # 29212); test: Broth microdilution MIC, E. faecalis; type: cell-based; details: for MIC: Enterococcus faecalis, ATCC29212
Description: as §1

[6] = test system: Escherichia coli (ATCC # 25922); test: Broth microdilution MIC, E. coli; type: cell-based; details: for MIC: Escherichia coli, ATCC25922
Description: as §1

[7] = Mueller Hinton Broth, read-out: SA/MH (MIC)
[8] = Trypticase Soy Broth, read-out: EF/Tsoy (MIC)
[9] = Mueller Hinton Broth, read-out: EF/MH (MIC)

T1 sequence (P49327 whole entry): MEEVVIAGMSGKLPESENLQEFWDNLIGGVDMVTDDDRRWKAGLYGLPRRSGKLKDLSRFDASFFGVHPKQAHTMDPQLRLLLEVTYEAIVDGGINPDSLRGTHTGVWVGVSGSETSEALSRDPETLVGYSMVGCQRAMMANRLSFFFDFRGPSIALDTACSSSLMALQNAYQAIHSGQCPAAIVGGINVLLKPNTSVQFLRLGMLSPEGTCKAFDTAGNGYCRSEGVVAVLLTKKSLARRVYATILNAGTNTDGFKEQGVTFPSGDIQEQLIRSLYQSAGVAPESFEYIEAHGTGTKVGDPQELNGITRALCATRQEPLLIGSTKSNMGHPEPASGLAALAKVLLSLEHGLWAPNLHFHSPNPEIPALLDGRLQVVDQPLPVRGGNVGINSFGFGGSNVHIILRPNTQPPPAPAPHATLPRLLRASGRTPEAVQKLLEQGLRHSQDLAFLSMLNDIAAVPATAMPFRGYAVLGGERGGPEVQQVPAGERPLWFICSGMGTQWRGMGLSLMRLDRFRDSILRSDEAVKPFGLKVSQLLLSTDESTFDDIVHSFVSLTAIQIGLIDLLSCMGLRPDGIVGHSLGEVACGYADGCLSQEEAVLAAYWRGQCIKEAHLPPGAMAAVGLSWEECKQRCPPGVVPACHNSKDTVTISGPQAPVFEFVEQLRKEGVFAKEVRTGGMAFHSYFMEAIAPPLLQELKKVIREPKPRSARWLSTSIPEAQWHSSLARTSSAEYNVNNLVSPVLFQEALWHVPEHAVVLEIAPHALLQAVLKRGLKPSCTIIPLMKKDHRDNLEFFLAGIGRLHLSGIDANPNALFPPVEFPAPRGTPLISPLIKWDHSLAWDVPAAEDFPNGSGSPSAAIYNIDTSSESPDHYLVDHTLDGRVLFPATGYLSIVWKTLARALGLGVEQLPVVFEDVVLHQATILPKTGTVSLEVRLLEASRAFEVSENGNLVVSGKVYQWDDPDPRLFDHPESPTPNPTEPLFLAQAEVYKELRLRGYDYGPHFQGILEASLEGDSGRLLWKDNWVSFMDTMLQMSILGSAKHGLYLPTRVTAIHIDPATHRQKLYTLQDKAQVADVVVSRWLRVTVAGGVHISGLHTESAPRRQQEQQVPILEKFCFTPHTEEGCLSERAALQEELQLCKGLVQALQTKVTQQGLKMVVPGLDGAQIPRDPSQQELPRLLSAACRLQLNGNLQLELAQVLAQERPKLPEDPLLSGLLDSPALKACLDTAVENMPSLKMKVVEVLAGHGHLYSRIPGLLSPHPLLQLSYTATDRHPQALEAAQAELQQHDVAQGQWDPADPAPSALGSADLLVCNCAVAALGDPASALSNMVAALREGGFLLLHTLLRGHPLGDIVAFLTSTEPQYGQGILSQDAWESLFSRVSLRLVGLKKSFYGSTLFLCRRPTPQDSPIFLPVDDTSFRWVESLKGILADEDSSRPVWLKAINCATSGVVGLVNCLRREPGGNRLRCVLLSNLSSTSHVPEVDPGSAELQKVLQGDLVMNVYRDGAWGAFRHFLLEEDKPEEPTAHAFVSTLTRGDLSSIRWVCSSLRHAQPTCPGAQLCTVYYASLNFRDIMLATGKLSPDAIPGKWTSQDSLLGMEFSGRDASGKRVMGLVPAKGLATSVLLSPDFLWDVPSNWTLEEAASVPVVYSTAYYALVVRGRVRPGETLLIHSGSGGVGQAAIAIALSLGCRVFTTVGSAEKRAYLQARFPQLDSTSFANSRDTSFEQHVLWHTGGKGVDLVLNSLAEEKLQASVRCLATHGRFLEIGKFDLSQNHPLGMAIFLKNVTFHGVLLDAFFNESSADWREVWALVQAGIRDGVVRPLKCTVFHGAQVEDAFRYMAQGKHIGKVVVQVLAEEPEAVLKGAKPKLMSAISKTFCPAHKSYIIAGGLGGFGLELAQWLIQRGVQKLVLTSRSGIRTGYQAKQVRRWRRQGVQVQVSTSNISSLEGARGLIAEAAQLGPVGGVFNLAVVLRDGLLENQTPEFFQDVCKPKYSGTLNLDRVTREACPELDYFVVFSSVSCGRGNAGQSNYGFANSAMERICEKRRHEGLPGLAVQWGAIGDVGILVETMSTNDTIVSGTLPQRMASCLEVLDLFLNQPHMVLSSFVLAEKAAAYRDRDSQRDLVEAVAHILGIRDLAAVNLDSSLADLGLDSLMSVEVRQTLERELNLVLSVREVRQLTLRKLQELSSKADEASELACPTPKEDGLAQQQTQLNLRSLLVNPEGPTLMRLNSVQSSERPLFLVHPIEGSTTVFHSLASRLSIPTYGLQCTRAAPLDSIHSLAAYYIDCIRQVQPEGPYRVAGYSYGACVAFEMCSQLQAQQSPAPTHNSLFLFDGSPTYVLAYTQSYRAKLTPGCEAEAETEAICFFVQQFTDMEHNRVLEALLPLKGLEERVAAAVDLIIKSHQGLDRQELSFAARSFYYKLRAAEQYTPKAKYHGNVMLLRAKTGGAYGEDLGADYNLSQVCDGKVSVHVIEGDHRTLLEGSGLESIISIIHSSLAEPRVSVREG

Compound: CCCCCCCCNC(=O)c1cc(O)cs1
- IC50 [1]: 325 µM
- Weight Loss ([2]; day 2): 60 mg/kg: 1.6% (day 2)
- MIC [3, 7]: 82 µg/mL (≈ 321 µM)
- SA/Tsoy (MIC) ([3]; Trypticase Soy Broth): Neg
- PSAE/MH (MIC) [4]: Neg
- MIC ([4]; Pseudomonas aeruginosa, ATCC27853, Trypticase Soy Broth, read-out: PSAE/Tsoy (MIC)): 83 µg/mL (≈ 325 µM)
- PSAE/Tsoy (MIC) ([4]; Trypticase Soy Broth): (MIC) Neg
- MIC [5, 8]: 123 µg/mL (≈ 482 µM)
- EF/MH (MIC) ([5]; Mueller Hinton Broth): Neg
- MIC ([6]; Trypticase Soy Broth, read-out: Ecoli/Tsoy (MIC)): 89 µg/mL (≈ 348 µM)
- Ecoli/MH (MIC) ([6]; Mueller Hinton Broth): Neg

Compound: CCCCCCCCNC(=O)c1cc(O)c(C(=O)OC)s1
- SA/MH (MIC) ([3]; Mueller Hinton Broth): Neg
- SA/Tsoy (MIC) ([3]; Trypticase Soy Broth): Neg
- PSAE/MH (MIC) [4]: Neg
- PSAE/Tsoy (MIC) ([4]; Trypticase Soy Broth): Neg
- EF/MH (MIC) ([5]; Mueller Hinton Broth): Neg
- EF/Tsoy (MIC) ([5]; Trypticase Soy Broth): Neg
- Ecoli/MH (MIC) ([6]; Mueller Hinton Broth): Neg
- Ecoli/Tsoy (MIC) ([6]; Trypticase Soy Broth): Neg

Compound: COC(=O)c1sc(C(=O)NNc2ccc(Cl)cc2)cc1O
- IC50 [1]: 305 µM
- Weight Loss ([2]; day 1): 60 mg/kg: +1.2% (day 1)
- MIC [3, 7]: 66 µg/mL (≈ 202 µM)
- MIC ([3]; Trypticase Soy Broth, read-out: SA/Tsoy (MIC)): 227 µg/mL (≈ 695 µM)
- PSAE/MH (MIC) [4]: Neg
- PSAE/Tsoy (MIC) ([4]; Trypticase Soy Broth): Neg
- EF/MH (MIC) ([5]; Mueller Hinton Broth): Neg
- EF/Tsoy (MIC) ([5]; Trypticase Soy Broth): Neg
- MIC ([6]; Mueller Hinton Broth, read-out: Ecoli/MH (MIC)): 136 µg/mL (≈ 416 µM)
- Ecoli/Tsoy (MIC) ([6]; Trypticase Soy Broth): Neg

Compound: C=CCNC(=O)c1cc(O)c(C(=O)OC)s1
- Weight Loss ([2]; day 1): 60 mg/kg: +2.3% (day 1)
- MIC [3, 7]: 80 µg/mL (≈ 332 µM)
- SA/Tsoy (MIC) ([3]; Trypticase Soy Broth): Neg
- PSAE/MH (MIC) [4]: Neg
- PSAE/Tsoy (MIC) ([4]; Trypticase Soy Broth): Neg
- MIC [5, 9]: 88 µg/mL (≈ 365 µM)
- MIC [5, 8]: 134 µg/mL (≈ 555 µM)
- Ecoli/MH (MIC) ([6]; Mueller Hinton Broth): Neg
- Ecoli/Tsoy (MIC) ([6]; Trypticase Soy Broth): Neg

Compound: COC(=O)c1sc(C(=O)O)cc1O
- MIC [3, 7]: 149 µg/mL (≈ 737 µM)
- SA/Tsoy (MIC) ([3]; Trypticase Soy Broth): Neg
- PSAE/MH (MIC) [4]: Neg
- PSAE/Tsoy (MIC) ([4]; Trypticase Soy Broth): Neg
- MIC [5, 9]: 101 µg/mL (≈ 500 µM)
- EF/Tsoy (MIC) ([5]; Trypticase Soy Broth): Neg
- Ecoli/MH (MIC) ([6]; Mueller Hinton Broth): Neg
- Ecoli/Tsoy (MIC) ([6]; Trypticase Soy Broth): Neg

From patent US20100029752A1, “NOVEL COMPOUNDS, PHARMACEUTICAL COMPOSITIONS CONTAINING SAME, AND METHODS OF USE FOR SAME” (priority 2005, published 2010)
